Measured values taken from publication PMC5218480 (PLoS ONE, 2017).

Test system: MV-4-11 cells
Assay: Gene expression microarray analysis (Affymetrix PrimeView) and GSEA
Type: cell-based, human
Parameters: RFU PODN (11730768_x_at) / Fold change /veh PODN (11730768_x_at) / RFU LINC00158 (11744669_a_at) / Fold change /veh LINC00158 (11744669_a_at) / RFU DUSP10 (11751237_a_at) / Fold change /veh DUSP10 (11751237_a_at) / RFU ID3 (11757404_x_at) / Fold change /veh ID3 (11757404_x_at) / RFU PLEKHG5 (11737974_s_at) / Fold change /veh PLEKHG5 (11737974_s_at) / RFU LRRC4B (11730491_at) / Fold change /veh LRRC4B (11730491_at) / RFU GIMAP4 (11747438_a_at) / Fold change /veh GIMAP4 (11747438_a_at) / RFU KRT8 (11758183_x_at) / Fold change /veh KRT8 (11758183_x_at) / RFU CNN1 (11734310_a_at) / Fold change /veh CNN1 (11734310_a_at) / RFU VPS37D (11726825_at) / Fold change /veh VPS37D (11726825_at) / RFU C10orf10 (11716522_x_at) / Fold change /veh C10orf10 (11716522_x_at) / RFU KIR2DL2 /// KIR2DL4 /// KIR2DL5A /// KIR2DL5B /// KIR2DS1 /// KIR2DS2 /// KIR2DS3 /// KIR2DS4 /// KIR3DL3 /// KIR3DL3 /// KIR3DS1 (11738374_at) / Fold change /veh KIR2DL2 /// KIR2DL4 /// KIR2DL5A /// KIR2DL5B /// KIR2DS1 /// KIR2DS2 /// KIR2DS3 /// KIR2DS4 /// KIR3DL3 /// KIR3DL3 /// KIR3DS1 (11738374_at) / RFU C1QL1 (11718748_at) / Fold change /veh C1QL1 (11718748_at) / RFU TMPRSS4 (11747572_a_at) / Fold change /veh TMPRSS4 (11747572_a_at) / RFU HAMP (11756126_x_at) / Fold change /veh HAMP (11756126_x_at) / RFU RNFT2 (11725882_a_at) / Fold change /veh RNFT2 (11725882_a_at) / RFU NR4A2 (11747474_a_at) / Fold change /veh NR4A2 (11747474_a_at) / RFU ABCC12 (11746883_a_at) / Fold change /veh ABCC12 (11746883_a_at) / RFU TMEM136 (11760407_x_at) / Fold change /veh TMEM136 (11760407_x_at) / RFU CLDN22 /// WWC2 (11732394_at) / Fold change /veh CLDN22 /// WWC2 (11732394_at) / RFU HLA-DPB1 (11760878_x_at) / Fold change /veh HLA-DPB1 (11760878_x_at) / RFU SPINT1 (11716480_a_at) / Fold change /veh SPINT1 (11716480_a_at) / RFU GAP43 (11754022_s_at) / Fold change /veh GAP43 (11754022_s_at) / RFU A4GNT (11735810_at) / Fold change /veh A4GNT (11735810_at) / RFU PRB3 (11715151_x_at) / Fold change /veh PRB3 (11715151_x_at) / RFU TUBB4B (11761932_at) / Fold change /veh TUBB4B (11761932_at) / RFU CAPN14 (11732068_a_at) / Fold change /veh CAPN14 (11732068_a_at) / RFU TMCC2 (11721928_a_at) / Fold change /veh TMCC2 (11721928_a_at) / RFU IRGQ (11745062_a_at) / Fold change /veh IRGQ (11745062_a_at) / RFU FAM174B (11720279_a_at) / Fold change /veh FAM174B (11720279_a_at) / RFU TMPRSS4 (11748680_a_at) / Fold change /veh TMPRSS4 (11748680_a_at) / RFU FAM212B (11763350_a_at) / Fold change /veh FAM212B (11763350_a_at) / RFU PLEKHG5 (11743358_a_at) / Fold change /veh PLEKHG5 (11743358_a_at) / RFU ZSCAN30 (11745921_a_at) / Fold change /veh ZSCAN30 (11745921_a_at) / RFU CMKLR1 (11741424_a_at) / Fold change /veh CMKLR1 (11741424_a_at) / RFU LOC101060620 /// MAPK8IP1 (11723275_at) / Fold change /veh LOC101060620 /// MAPK8IP1 (11723275_at) / RFU SPTSSB (11747773_x_at) / Fold change /veh SPTSSB (11747773_x_at) / RFU PRSS12 (11739890_at) / Fold change /veh PRSS12 (11739890_at) / RFU BIN1 (11741810_x_at) / Fold change /veh BIN1 (11741810_x_at) / RFU WNT11 (11732464_a_at) / Fold change /veh WNT11 (11732464_a_at) / RFU C10orf10 (11716521_a_at) / Fold change /veh C10orf10 (11716521_a_at) / RFU C5orf56 (11738089_at) / Fold change /veh C5orf56 (11738089_at) / RFU CYB561 (11721691_x_at) / Fold change /veh CYB561 (11721691_x_at) / RFU ANKRD19P (11752326_a_at) / Fold change /veh ANKRD19P (11752326_a_at) / RFU OR2T12 /// OR2T33 /// OR2T8 (11738714_s_at) / Fold change /veh OR2T12 /// OR2T33 /// OR2T8 (11738714_s_at) / RFU VCAN (11748164_a_at) / Fold change /veh VCAN (11748164_a_at) / RFU JSRP1 (11732532_at) / Fold change /veh JSRP1 (11732532_at) / RFU KRTAP10-11 (11738290_x_at) / Fold change /veh KRTAP10-11 (11738290_x_at) / RFU MYO3A (11730013_a_at) / Fold change /veh MYO3A (11730013_a_at) / RFU EBF3 (11725865_a_at) / Fold change /veh EBF3 (11725865_a_at) / RFU CAMK2N1 (11719241_x_at) / Fold change /veh CAMK2N1 (11719241_x_at) / RFU C5orf56 (11738088_a_at) / Fold change /veh C5orf56 (11738088_a_at) / RFU OLFML3 (11715873_a_at) / Fold change /veh OLFML3 (11715873_a_at) / RFU LOC100653217 /// NTM (11731650_a_at) / Fold change /veh LOC100653217 /// NTM (11731650_a_at) / RFU MAPK11 (11762145_a_at) / Fold change /veh MAPK11 (11762145_a_at) / RFU FIZ1 (11724087_x_at) / Fold change /veh FIZ1 (11724087_x_at) / RFU OASL (11726364_x_at) / Fold change /veh OASL (11726364_x_at) / RFU SOX15 (11748057_x_at) / Fold change /veh SOX15 (11748057_x_at) / RFU CD79A (11719716_a_at) / Fold change /veh CD79A (11719716_a_at) / RFU HIST1H1D (11736915_at) / Fold change /veh HIST1H1D (11736915_at) / RFU CASKIN2 (11723855_a_at) / Fold change /veh CASKIN2 (11723855_a_at) / RFU LOC730098 (11760151_x_at) / Fold change /veh LOC730098 (11760151_x_at) / RFU OR4N2 (11742367_at) / Fold change /veh OR4N2 (11742367_at) / RFU PRRT2 (11749266_a_at) / Fold change /veh PRRT2 (11749266_a_at) / RFU SNX32 (11753110_a_at) / Fold change /veh SNX32 (11753110_a_at) / RFU CDHR5 (11726645_a_at) / Fold change /veh CDHR5 (11726645_a_at) / RFU RCAN1 (11760418_a_at) / Fold change /veh RCAN1 (11760418_a_at) / RFU FAM167A (11723789_a_at) / Fold change /veh FAM167A (11723789_a_at) / RFU FAM26E (11764081_at) / Fold change /veh FAM26E (11764081_at) / RFU ISYNA1 (11749810_s_at) / Fold change /veh ISYNA1 (11749810_s_at) / RFU ACY1 (11761880_at) / Fold change /veh ACY1 (11761880_at) / RFU 11764098_at / Fold change /veh 11764098_at / RFU SAMD14 (11745864_x_at) / Fold change /veh SAMD14 (11745864_x_at) / RFU NPB (11741838_a_at) / Fold change /veh NPB (11741838_a_at) / RFU TMPRSS6 (11731388_a_at) / Fold change /veh TMPRSS6 (11731388_a_at) / RFU KRTAP10-2 (11738614_at) / Fold change /veh KRTAP10-2 (11738614_at) / RFU ARHGAP8 /// PRR5-ARHGAP8 (11727945_x_at) / Fold change /veh ARHGAP8 /// PRR5-ARHGAP8 (11727945_x_at) / RFU KRTAP5-7 /// NADSYN1 (11734609_at) / Fold change /veh KRTAP5-7 /// NADSYN1 (11734609_at) / RFU RASL12 (11751679_a_at) / Fold change /veh RASL12 (11751679_a_at) / RFU CDKN2B (11736163_a_at) / Fold change /veh CDKN2B (11736163_a_at) / RFU PRF1 (11729649_at) / Fold change /veh PRF1 (11729649_at) / RFU, ZNF638 /// ZNF638-IT1 / Fold change vs veh, ZNF638 /// ZNF638-IT1 / RFU, PANK3 / Fold change vs veh, PANK3 / RFU, SH3YL1 / Fold change vs veh, SH3YL1 / RFU, ZEB2 / Fold change vs veh, ZEB2 / RFU, NRIP1 / Fold change vs veh, NRIP1 / RFU, PTTG1IP / Fold change vs veh, PTTG1IP / RFU, CAPN2 / Fold change vs veh, CAPN2 / RFU, MED14 / Fold change vs veh, MED14 / RFU, SNORA58 / Fold change vs veh, SNORA58 / RFU, C1orf63 / Fold change vs veh, C1orf63 / RFU, LRRFIP1 / Fold change vs veh, LRRFIP1 / RFU, NDUFAF7 / Fold change vs veh, NDUFAF7 / RFU, SLC12A2 / Fold change vs veh, SLC12A2 / RFU, IBTK / Fold change vs veh, IBTK / RFU, ESF1 / Fold change vs veh, ESF1 / Fold change vs veh, TMEM50B / RFU, TAOK1 / Fold change vs veh, TAOK1 / RFU, ACBD3 / Fold change vs veh, ACBD3 / RFU, TMA16 / Fold change vs veh, TMA16 / RFU, RWDD3 / Fold change vs veh, RWDD3 / RFU, BCAT1 / Fold change vs veh, BCAT1 / RFU, EDEM3 / Fold change vs veh, EDEM3 / RFU, TMEM33 / Fold change vs veh, TMEM33 / RFU, WDR75 / Fold change vs veh, WDR75 / RFU, AHCTF1 / Fold change vs veh, AHCTF1 / RFU, TFRC / Fold change vs veh, TFRC / RFU, ZDHHC17 / Fold change vs veh, ZDHHC17 / RFU, NOM1 / Fold change vs veh, NOM1 / RFU, ARL8B / Fold change vs veh, ARL8B / RFU, ZBTB11 / Fold change vs veh, ZBTB11 / RFU, TAMM41 / Fold change vs veh, TAMM41 / RFU, KIAA1704 /// LOC100996395 / Fold change vs veh, KIAA1704 /// LOC100996395 / RFU, ING1 / Fold change vs veh, ING1 / RFU, TRMT61B / Fold change vs veh, TRMT61B / RFU, FUBP3 / Fold change vs veh, FUBP3 / RFU, TP53 / Fold change vs veh, TP53 / RFU, TNKS2 / Fold change vs veh, TNKS2 / RFU, ZFP14 / Fold change vs veh, ZFP14 / RFU, ACTR2 / Fold change vs veh, ACTR2 / RFU, PPP3R1 / Fold change vs veh, PPP3R1 / RFU, PIK3R1 / Fold change vs veh, PIK3R1 / RFU, HNRNPA1 / Fold change vs veh, HNRNPA1 / RFU, RNF170 / Fold change vs veh, RNF170 / RFU, ZNF28 / Fold change vs veh, ZNF28 / RFU, RNGTT / Fold change vs veh, RNGTT / RFU, OGT / Fold change vs veh, OGT / RFU, BRD1 / Fold change vs veh, BRD1 / RFU, MARS / Fold change vs veh, MARS / RFU, ZNF655 / Fold change vs veh, ZNF655 / RFU, FAHD1 / Fold change vs veh, FAHD1 / RFU, BDP1 / Fold change vs veh, BDP1 / RFU, LRRCC1 / Fold change vs veh, LRRCC1 / RFU, ARID1A / Fold change vs veh, ARID1A / RFU, ZNF146 / Fold change vs veh, ZNF146 / RFU, ZNF330 / Fold change vs veh, ZNF330 / RFU, GPN3 / Fold change vs veh, GPN3 / RFU, C9orf123 / Fold change vs veh, C9orf123 / RFU, N4BP2L2 / Fold change vs veh, N4BP2L2 / RFU, ARFIP1 / Fold change vs veh, ARFIP1 / RFU, FAM179B / Fold change vs veh, FAM179B / RFU, BCL10 / Fold change vs veh, BCL10 / RFU, UHRF1BP1L / Fold change vs veh, UHRF1BP1L / RFU, BET1 / Fold change vs veh, BET1 / RFU, CNOT2 / Fold change vs veh, CNOT2 / RFU, ZNF268 / Fold change vs veh, ZNF268 / Fold change vs veh, ZNF507 / RFU, DGCR2 / Fold change vs veh, DGCR2 / RFU, WDSUB1 / Fold change vs veh, WDSUB1 / Fold change vs veh, HSP90B1 /// MIR3652 / RFU, ADSS / Fold change vs veh, ADSS / RFU, GK / Fold change vs veh, GK / RFU, ZNF148 / Fold change vs veh, ZNF148 / RFU, TAF9 / Fold change vs veh, TAF9 / RFU, SLC1A5 / Fold change vs veh, SLC1A5 / RFU, SLMO2 / Fold change vs veh, SLMO2 / RFU, ABCC4 / Fold change vs veh, ABCC4 / RFU, LOC101060439 /// RAP1B / Fold change vs veh, LOC101060439 /// RAP1B / RFU, RFX7 / Fold change vs veh, RFX7 / RFU, GTPBP10 / Fold change vs veh, GTPBP10 / RFU, CNEP1R1 / Fold change vs veh, CNEP1R1 / RFU, BIVM-ERCC5 /// ERCC5 / Fold change vs veh, BIVM-ERCC5 /// ERCC5 / RFU, ILF3 / Fold change vs veh, ILF3 / RFU 11762660_at / Fold change /veh 11762660_at / RFU VCAN (11757783_s_at) / Fold change /veh VCAN (11757783_s_at) / RFU DDX43 (11728927_at) / Fold change /veh DDX43 (11728927_at) / RFU KRT8 (11758188_x_at) / Fold change /veh KRT8 (11758188_x_at) / RFU NKD1 (11759106_at) / Fold change /veh NKD1 (11759106_at) / RFU SRD5A1 (11742802_a_at) / Fold change /veh SRD5A1 (11742802_a_at) / RFU TPSAB1 /// TPSB2 (11721975_s_at) / Fold change /veh TPSAB1 /// TPSB2 (11721975_s_at) / RFU GSTM3 (11746129_a_at) / Fold change /veh GSTM3 (11746129_a_at) / RFU IL23R (11737362_x_at) / Fold change /veh IL23R (11737362_x_at) / RFU TMEM51 (11727254_a_at) / Fold change /veh TMEM51 (11727254_a_at) / RFU PIWIL2 (11732686_x_at) / Fold change /veh PIWIL2 (11732686_x_at) / RFU ORM1 (11744905_x_at) / Fold change /veh ORM1 (11744905_x_at) / RFU CCDC152 (11743942_at) / Fold change /veh CCDC152 (11743942_at) / RFU ECM1 (11717891_a_at) / Fold change /veh ECM1 (11717891_a_at) / RFU IL23R (11748794_a_at) / Fold change /veh IL23R (11748794_a_at) / RFU TNFAIP8L3 (11732012_x_at) / Fold change /veh TNFAIP8L3 (11732012_x_at) / RFU MBOAT4 (11741988_at) / Fold change /veh MBOAT4 (11741988_at) / RFU 11764193_at / Fold change /veh 11764193_at / RFU TMEM53 (11763286_at) / Fold change /veh TMEM53 (11763286_at) / RFU MAGEB2 (11727129_at) / Fold change /veh MAGEB2 (11727129_at) / RFU TMEM200A (11744735_a_at) / Fold change /veh TMEM200A (11744735_a_at) / RFU CCDC152 (11751479_a_at) / Fold change /veh CCDC152 (11751479_a_at) / RFU FAM211A (11726209_a_at) / Fold change /veh FAM211A (11726209_a_at) / RFU RGS16 (11746705_a_at) / Fold change /veh RGS16 (11746705_a_at) / RFU VCAN (11755009_s_at) / Fold change /veh VCAN (11755009_s_at) / RFU RHOB (11743442_s_at) / Fold change /veh RHOB (11743442_s_at) / RFU RGS16 (11720943_a_at) / Fold change /veh RGS16 (11720943_a_at) / RFU RGS16 (11720944_at) / Fold change /veh RGS16 (11720944_at) / RFU, VPS4B / Fold change vs veh, VPS4B / RFU, CREB1 / Fold change vs veh, CREB1 / RFU, DNAJC13 / Fold change vs veh, DNAJC13 / RFU, GNAQ / Fold change vs veh, GNAQ / RFU, CDK5R1 / Fold change vs veh, CDK5R1 / RFU, ZRANB3 / Fold change vs veh, ZRANB3 / RFU, CUL4A / Fold change vs veh, CUL4A / RFU, CCNY / Fold change vs veh, CCNY / RFU, UFL1 / Fold change vs veh, UFL1 / RFU, COG3 / Fold change vs veh, COG3 / RFU, DIAPH2 / Fold change vs veh, DIAPH2 / RFU, SKA2 / Fold change vs veh, SKA2 / RFU, AFF3 / Fold change vs veh, AFF3 / RFU, LMF1 / Fold change vs veh, LMF1 / RFU, IPO11 / Fold change vs veh, IPO11 / RFU, DFFB / Fold change vs veh, DFFB / RFU, FOXP1 / Fold change vs veh, FOXP1 / RFU, CARD8 / Fold change vs veh, CARD8 / RFU, STRN3 / Fold change vs veh, STRN3 / RFU, ADK / Fold change vs veh, ADK / RFU, RASSF2 / Fold change vs veh, RASSF2 / RFU, WIPF1 / Fold change vs veh, WIPF1 / RFU, LARP1B / Fold change vs veh, LARP1B / RFU, RASA1 / Fold change vs veh, RASA1 / RFU, RB1 / Fold change vs veh, RB1 / RFU, PPFIA1 / Fold change vs veh, PPFIA1 / RFU, MAT2A / Fold change vs veh, MAT2A / RFU, CCT5 / Fold change vs veh, CCT5 / RFU, WDR92 / Fold change vs veh, WDR92 / RFU, CUX1 / Fold change vs veh, CUX1 / RFU, TTC7A / Fold change vs veh, TTC7A / RFU, TMEM135 / Fold change vs veh, TMEM135 / RFU, DEPTOR / Fold change vs veh, DEPTOR / RFU, CPM / Fold change vs veh, CPM / RFU, DNAJB6 / Fold change vs veh, DNAJB6 / RFU, CACNA2D3 / Fold change vs veh, CACNA2D3 / RFU, DTX4 / Fold change vs veh, DTX4 / RFU, TFCP2 / Fold change vs veh, TFCP2 / RFU, GMCL1 /// GMCL1P1 / Fold change vs veh, GMCL1 /// GMCL1P1 / RFU, AEBP2 / Fold change vs veh, AEBP2 / RFU, SNHG1 /// SNORD22 /// SNORD25 /// SNORD26 /// SNORD27 /// SNORD28 /// SNORD29 /// SNORD31 / Fold change vs veh, SNHG1 /// SNORD22 /// SNORD25 /// SNORD26 /// SNORD27 /// SNORD28 /// SNORD29 /// SNORD31 / Fold change (Aza/veh), C12orf56 (ProbeSet 11735607_a_at) / Fold change (ACY-1035/veh), C12orf56 (ProbeSet 11735607_a_at) / Fold change (Aza/veh), FGFR1OP (ProbeSet 11751329_s_at) / Fold change (ACY-1035/veh), FGFR1OP (ProbeSet 11751329_s_at) / Fold change (Aza/veh), VPS36 (ProbeSet 11739960_a_at) / Fold change (ACY-1035/veh), VPS36 (ProbeSet 11739960_a_at) / RFU SYPL1 (11715823_x_at) / Fold change /veh SYPL1 (11715823_x_at) / RFU IGFBP7 (11715501_s_at) / Fold change /veh IGFBP7 (11715501_s_at) / RFU REEP3 (11722064_at) / Fold change /veh REEP3 (11722064_at) / RFU IGLL1 (11728026_x_at) / Fold change /veh IGLL1 (11728026_x_at): dose or concentration left out as unconfirmed
Conditions: MV-4-11 cells, 48 hours

SMILES: Nc1ccc(-c2cccs2)cc1NC(=O)c1ccc2c(c1)cc(C1CC1)n2CCN1CCOCC1 [ACY-1035]
- Fold change /veh SPINT1 (11716480_a_at): 1.05
